Structures are written as SMILES. Where only a bound is given, the exact number is not on record here.

These results are taken from patent publication US10227345B2, “Compounds and methods for inhibiting fascin” (Cornell University, priority 2014, dated 2019).

In this test the target is T1, human fascin 1 (Homo sapiens, UniProt Q16658).
T1 construct: GST (N, cleaved yes); made in house; host or cells: Escherichia coli BL21/DE3 (pGEX4T-fascin 1 plasmid)
The experiment in a line: Fascin inhibition (actin bundling) assay, image-based. It is filed as biochemical. The note with it: in the presence of 50 μm of the compound relative to bundle activity when the compound was not present; read-out: Inhibition (percentage reduction of bundle activity). As for the experimental part:
Recombinant human fascin 1 was expressed as a GST fusion protein in BL21 Escherichia coli. One liter of 2YT medium with ampicillin was inoculated overnight with 3 mL of BL21/DE3 culture transformed with pGEX4T-fascin 1 plasmid and grown at 37° C. until attenuance at 600 nm (D600) reached about 0.8. The culture was then transferred to 18° C. and induced by the addition of 0.1 mM isopropyl β-d-thiogalactoside (IPTG) for 12 h. Bacteria were harvested by centrifugation at 5,000 r.p.m. for 10 min. The pellets were suspended in 30 mL of PBS supplemented with 0.2 mM PMSF, 1 mM DTT, 1% (v/v) Triton X-100 and 1 mM EDTA. After sonication, the suspension was centrifuged at 15,000 r.p.m. for 30 min to remove the cell debris. The supernatant was then incubated for 2 h with 4 mL of glutathione beads (Sigma) at 4° C. After extensive washing with PBS, the beads were resuspended in 10 mL of thrombin cleavage buffer (20 mM Tris-HCl pH 8.0, 150 mM NaCl, 2 mM CaCl2, 1 mM DTT). Fascin was released from the beads by incubation overnight with 40-100 U of thrombin at 4° C. After centrifugation, 0.2 mM PMSF was added to the supernatant to inactivate the remnant thrombin activity. The fascin protein was further concentrated with a Centricon® (Boca Raton, Fla.) filter to about 50 mg/mL.
Representative compounds described herein were tested for fascin inhibition activity. Purified fascin protein (15 μL of 0.5 μM) in buffer (100 mM KCl, 20 mM Tris/HCl, pH 7.5, 2 mM MgCl2) was added into each well of a clear 384-well flat-bottom plate (Corning) using Thermo Multidrop Combi (Fisher). Compound solutions (5 mM stock, 180 nL) were pin transferred from stock 384-well plates into the 384-well assay plates and incubated for 30 min. Then 15 μL of 0.5 μM polymerized actin (in 100 mM KCl, 20 mM Tris/HCl, pH 7.5, 2 mM MgCl2, 1 mM DTT, 1 mM ATP) (Cytoskeleton Inc.) was added, resulting in 30 μM final concentration for chemical compounds. […] Mixed solution (25 μL) was then transferred to one well in a black 384-well plate coated with poly-D-lysine, and stained actin bundles or F-actin would stick onto the poly-D-lysine plates. After the plates were thoroughly washed with 1×PBS for 3 times, the plate was imaged using an ImageXpress Micro High Content Screening System (Molecular devices). The images were processed and analyzed using MetaMorph software. The raw image data for each well was background-corrected by subtraction of the median intensities across all wells on the plate. The background-corrected data was used to compute the bundle length for each well. The negative control wells were employed for quality control: multiple DMSO-only control wells (16 wells/plate) were present on each assay plate.

Consider `Cc1ncsc1C(=O)Nc1nn(Cc2ccc(C(F)(F)F)cc2)c2cccc(Cl)c12` [Compound 120, N-(4-chloro-1-(4-(trifluoromethyl)benzyl)-1H-indazol-3-yl)-4-methylthiazole-5-carboxamide], for which the inhibition at 50 µM is below 10%.
As to `FC(F)(F)c1ccc(Cn2nc(-c3ccccc3)c3ccccc32)cc1` [Compound 144, 3-Phenyl-1-(4-(trifluoromethyl)benzyl)-1H-indazole], the inhibition at 50 µM worked out at 10%.
In the case of `O=C(Nc1nn(Cc2ccc(C(F)(F)F)cc2)c2ccccc12)c1cccc(F)c1` [Compound 14, 3-fluoro-N-(1-(4-(trifluoromethyl)benzyl)-1H-indazol-3-yl)benzamide], the inhibition at 50 µM is below 10%.
As for `CCC(=O)Nc1nn(Cc2ccc(C(F)(F)F)cc2)c2cncc(Cl)c12` [Compound 151, N-(4-chloro-1-(4-(trifluoromethyl)benzyl)-1H-pyrazolo[3,4-c]pyridin-3-yl)propionamide], the figure is 80%.
On to `Cc1ccc(C(=O)Nc2nn(Cc3ccc(C(F)(F)F)cc3)c3ccccc23)cc1` [Compound 16], for which the inhibition at 50 µM was below 10%.
As to `Cc1nocc1C(=O)Nc1nn(Cc2ccc(C(F)(F)F)nc2)c2ccccc12` [Compound 93, 3-methyl-N-(1-((6-(trifluoromethyl)pyridin-3-yl)methyl)-1H-indazol-3-yl)isoxazole-4-carboxamide], the inhibition at 50 µM was below 10%.
`O=C(Nc1nn(Cc2ccccc2C(F)(F)F)c2ccccc12)c1ccoc1` [Compound 57, N-(1-(2-(trifluoromethyl)benzyl)-1H-indazol-3-yl)furan-3-carboxamide]: the inhibition at 50 µM was below 10%.
With `O=C(Nc1nn(Cc2ccc(C(F)(F)F)cc2)c2ccccc12)c1ccccc1C(F)(F)F` [Compound 50, 2-(trifluoromethyl)-N-(1-(4-(trifluoromethyl)benzyl)-1H-indazol-3-yl)benzamide], the inhibition at 50 µM is below 10%.
As to `O=C(Nc1nn(Cc2ccc(C(F)(F)F)cc2)c2cncc(Cl)c12)c1ccoc1` [Compound 140, N-(4-chloro-1-(4-(trifluoromethyl)benzyl)-1H-pyrazolo[3,4-c]pyridin-3-yl)furan-3-carboxamide], the inhibition at 50 µM was determined as 10%.
`O=C(Nc1nn(Cc2ccc(C(F)(F)F)cc2)c2ccccc12)c1sccc1F` [Compound 37, 3-fluoro-N-(1-(4-(trifluoromethyl)benzyl)-1H-indazol-3-yl)thiophene-2-carboxamide]: the inhibition at 50 µM is below 10%.
With `Cc1ncsc1C(=O)Nc1nn(Cc2ccc(C(F)(F)F)cc2)c2cncc(Cl)c12` [Compound 138, N-(4-chloro-1-(4-(trifluoromethyl)benzyl)-1H-pyrazolo[3,4-c]pyridin-3-yl)-4-methylthiazole-5-carboxamide], the inhibition at 50 µM worked out at 90%.
For `Cc1ncsc1C(=O)Nc1nn(Cc2ccc(C(F)(F)F)nc2)c2ccccc12` [Compound 95, 4-methyl-N-(1-((6-(trifluoromethyl)pyridin-3-yl)methyl)-1H-indazol-3-yl)thiazole-5-carboxamide] the value was below 10%; for `Nc1nn(Cc2ccc(C(F)(F)F)cc2)c2ccc(C(F)(F)F)cc12` [Compound 122, 5-(trifluoromethyl)-1-(4-(trifluoromethyl)benzyl)-1H-indazol-3-amine], below 10%; for `O=C(Nc1nn(Cc2ccc(C(F)(F)F)cc2)c2cccc(Cl)c12)c1ccoc1` [Compound 117, N-(4-chloro-1-(4-(trifluoromethyl)benzyl)-1H-indazol-3-yl)furan-3-carboxamide], below 10%.
Regarding `Cc1occc1-c1nn(Cc2ccc(C(F)(F)F)cc2)c2ccccc12` [Compound 148, 3-(2-methylfuran-3-yl)-1-(4-(trifluoromethyl)benzyl)-1H-indazole], the inhibition at 50 µM stood at 10%.
Consider `O=C(Nc1nn(Cc2ccc(C(F)(F)F)cc2)c2ccccc12)c1cncnc1` [Compound 56, N-(1-(4-(trifluoromethyl)benzyl)-1H-indazol-3-yl)pyrimidine-5-carboxamide], for which the inhibition at 50 µM was determined as 90%.
Turning to `Cc1ncsc1C(=O)Nc1nn(Cc2ccc(C(F)(F)F)cc2)c2ccc(C(F)(F)F)cc12` [Compound 126, 4-methyl-N-(5-(trifluoromethyl)-1-(4-(trifluoromethyl)-bemzyl)-1H-indazol-3-yl)thiazole-5-carboxamide], the inhibition at 50 µM was below 10%.
Take `Cc1occc1C(=O)Nc1nn(Cc2ccc(C(F)(F)F)nc2)c2ccccc12` [Compound 94, 2-methyl-N-(1-((6-(trifluoromethyl)pyridin-3-yl)methyl)-1H-indazol-3-yl)furan-3-carboxamide]: the inhibition at 50 µM was below 10%.
Take `Nc1nn(Cc2ccc(C(F)(F)F)nc2)c2ccccc12` [Compound 91, 1-((6-(trifluoromethyl)pyridine-3-yl)methyl)-1H-indazol-3-amine]: the inhibition at 50 µM is below 10%.
Turning to `FC(F)(F)c1ccc(CNc2nn(Cc3ccc(C(F)(F)F)cc3)c3ccccc23)cc1` [Compound 22, N,1-bis(4-(trifluoromethyl)benzyl)-1H-indazol-3-amine], the inhibition at 50 µM is below 10%.
As for `O=C(Nc1nn(Cc2ccc(Cl)cc2)c2ccccc12)c1cccnn1` [Compound 69, N-(1-(4-chlorobenzyl)-1H-indazol-3-yl)pyridazine-3-carboxamide], the inhibition at 50 µM was determined as 50%.
For `Cc1ccc(-c2ccc(C(=O)Nc3nn(Cc4ccc(C(F)(F)F)cc4)c4ccccc34)o2)cc1` [Compound 3, 5-(p-tolyl)-N-(1-(4-(trifluoromethyl)benzyl)-1H-indazol-3-yl)furan-2-carboxamide] the value was 10%.
For `Nc1nn(Cc2ccc(C(F)(F)F)cc2)c2cncc(Cl)c12` [Compound 137, 4-chloro-1-(4-(trifluoromethyl)benzyl)-1H-pyrazolo[3,4-c]pyridin-3-amine], the inhibition at 50 µM is 100%.
Consider `N#Cc1ccc(Cn2nc(NC(=O)c3ccoc3)c3ccccc32)cc1` [Compound 85, N-(1-(4-cyanobenzyl)-1H-indazol-3-yl)furan-3-carboxamide], for which the inhibition at 50 µM is below 10%.
In the case of `CC(C)C(=O)Nc1nn(Cc2ccc(C(F)(F)F)cc2)c2cncc(Cl)c12` [Compound 152, N-(4-chloro-1-(4-(trifluoromethyl)benzyl)-1H-pyrazolo[3,4-c]pyridin-3-yl)isobutyramide], the inhibition at 50 µM was 100%.
Turning to `Cc1nocc1C(=O)Nc1nn(Cc2ccc(C(F)(F)F)cc2)c2cncc(Cl)c12` [Compound 142, N-(4-chloro-1-(4-(trifluoromethyl)benzyl)-1H-pyrazolo[3,4-c]pyridin-3-yl)-3-methylisoxazole-4-carboxamide], the inhibition at 50 µM stood at 10%.
Consider `O=C(Nc1nn(Cc2ccc(C(F)(F)F)cc2)c2ccccc12)c1cscn1` [Compound 30, N-(1-(4-(trifluoromethyl)benzyl)-1H-indazol-3-yl)thiazole-4-carboxamide], for which the inhibition at 50 µM was below 10%.
For the compound `Cc1ocnc1C(=O)Nc1nn(Cc2ccc(C(F)(F)F)cc2)c2ccccc12` [Compound 31, 5-methyl-N-(1-(4-(trifluoromethyl)benzyl)-1H-indazol-3-yl)oxazole-4-carboxamide], the inhibition at 50 µM turned out to be 60%.
`Cc1ncsc1C(=O)Nc1nn(Cc2ccc(C(F)(F)F)cc2)c2c(C(F)(F)F)cccc12` [Compound 115, 4-methyl-N-(7-(trifluoromethyl)-1-(4-(trifluoromethyl)benzyl)-1H-indazol-3-yl)thiazole-5-carboxamide]: the inhibition at 50 µM was below 10%.
Consider `Nc1nn(Cc2ccc(Cl)cc2)c2ccccc12` [Compound 63, 1-(4-chlorobenzyl)-1H-indazol-3-amine], for which the inhibition at 50 µM is below 10%.
Take `Cc1nocc1C(=O)Nc1nn(Cc2ccc(F)cc2)c2ccccc12` [Compound 72, N-(1-(4-fluorobenzyl)-1H-indazol-3-yl)-3-methylisoxazole-4-carboxamide]: the inhibition at 50 µM is below 10%.
On to `Cc1occc1C(=O)Nc1nn(Cc2ccc(Cl)cc2)c2ccccc12` [Compound 67, N-(1-(4-chlorobenzyl)-1H-indazol-3-yl)-2-methylfuran-3-carboxamide], for which the inhibition at 50 µM is 50%.

For orientation: inhibition means the percentage by which the read-out fell short of the control.
